In PubChem BioAssay (NCI):
Several values for one entry are separate records, joined by “and”; a condition that tells them apart may be missing. Identical values can stand only once.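 Briefly, cells in 96-well plates were exposed to five compound concentrations for 48 h, and endpoints were estimated by linear interpolation. The concentration for 50% growth inhibition is given as GI50. The concentration for full growth arrest is given as TGI.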

Legend:
Test in all cases: NCI tumour cell line growth inhibition, 48 h
[1] = tested on: RPMI-8226 leukemia
[2] = tested on: LOX IMVI melanoma
[3] = tested on: SW-620 colon
[4] = tested on: NCI-H226 lung
[5] = tested on: SF-268 CNS
[6] = tested on: SR leukemia
[7] = tested on: OVCAR-8 ovarian
[8] = tested on: T-47D breast
[9] = tested on: RXF 393 renal
[10] = tested on: NCI-H23 lung

Row | SMILES | GI50 [1] [µM] | TGI [1] [µM] | GI50 [2] [µM] | TGI [2] [µM] | GI50 [3] [µM] | TGI [3] [µM] | GI50 [4] [µM] | TGI [4] [µM] | GI50 [5] [µM] | TGI [5] [µM] | GI50 [6] [µM] | TGI [6] [µM] | GI50 [7] | TGI [7] [µM] | GI50 [8] | TGI [8] [µM] | GI50 [9] [µM] | TGI [9] [µM] | GI50 [10] [µM] | TGI [10] [µM]
1 | CNCCOC(=O)/C=C1/CCC2C(C(O)CC3C(C)(C(=O)OC)CCCC23C)C1C (stereo unspecified) | 0.0248 | 0.0657 | 0.0192 | 0.042 | 0.018 | 0.0394 | 0.0191 | 0.0408 | < 0.01 | 0.02 | 0.0198 | 0.0553 | 0.018 µM | 0.0331 | 0.0294 µM | 0.0762 | 0.0156 | 0.0521 | 0.0153 | 0.0355
2 | C=C1C(=O)O[C@H]2C[C@@H]1CCC1(C)OC1CC/C(C)=C/CC[C@H]2C (stereo partly specified) | 20.1 | 41.9 | 24 | 38.6 | 19.2 | 36.9 | 18.7 | 39.4 | 18.7 | 37 | 18.1 | 33 | 26.8 µM | 72.2 | 16.9 µM | 37.6 | 21.4 | 43.1 | 19.6 | 37.1
3 | CC1(C)Cc2c(Br)c(Br)c(Br)c(OCC(O)CN3CCOCC3)c2O1 (stereo unspecified) | 3.82 | 18.7 | 13.6 | 27.9 | 15.6 | 29.8 | 15.2 | 34.9 | 12.1 | 27.8 | 5.14 | 18.4 | 11.3 µM | 35.4 | 13.1 µM | 27.3 | 3.69 | 13 | 13.5 | 27.6
4 | COc1ccc(C(=O)CC(c2ccc(OC)c(OC)c2)c2c(O)c3ccccc3oc2=O)cc1OC (stereo unspecified) |  | > 100 |  | > 100 |  | > 100 |  | > 100 |  | > 100 |  | > 100 |  | > 100 |  | > 100 |  | > 100 |  | > 100
5 | COc1cc(-c2n/c(=C\c3c(O)[nH]c4ccccc34)cc3c2=Nc2ccccc2-3)cc(OC)c1OC | 3.09 | > 26.4 | 0.552 | > 100 | 0.449 | > 100 | 4.23 | > 100 | 1.39 | > 100 | 0.692 | > 29.1 | 2.53 µM | > 100 | 1.14 µM | > 22.5 | 0.436 | 5.34 | 0.39 | > 100
6 | O=C1C=CC(=O)c2c1ncc1c2nc2sccn21 | 12.7 | 47.4 | 29.9 | > 100 | 14.7 | 77.7 | 37.6 | > 100 | 18.5 | > 100 | 3.53 | 35.3 | 30.5 µM | > 100 | 31.9 µM | > 100 | 20.8 | 64.8 | 22.2 | 83.7
7 | CCOC(=O)/C(=C\c1ccc(F)cc1)C(C)=O |  | 53 |  | 36.7 |  | > 100 |  | 75.2 |  | > 100 |  | 64 |  | 94.6 |  | 63.9 |  | 34.8 |  | 46
8 | COc1ccc(-c2nc3sc4c(c3c(=O)[nH]2)CCCC4)c2ccccc12 |  | > 100 |  | > 100 |  | > 100 | 1.41 |  |  | > 100 | 0.418 |  | 0.474 µM and 0.0475 µM | > 100 | 4.82 µM and 2.85 µM | > 100 | 0.253 | 0.799 | 0.57 | 
9 | O=[N+]([O-])/C=C/c1ccc([N+](=O)[O-])cc1 | 2.25 | 5.95 | 1.32 | 2.73 | 1.49 | 3.21 | 2.06 | 5.37 | 3.65 | 12.9 | 2.29 | 8.33 | 3.68 µM | 15.1 | 2.78 µM | 9.03 | 1.52 | 2.98 | 2.07 | 5.2
10 | c1cncc(CNc2ncn[nH]2)c1 |  | > 100 |  | > 100 |  | > 100 |  | > 100 |  | > 100 |  | > 100 |  | > 100 |  | > 100 |  | > 100 |  | > 100
11 | O=C(/C=C\c1ccc2ccccc2n1)c1cc(Cl)ccc1O | 2.15 | 5.83 | 2.84 | 11.7 | 1.84 | 3.84 | 9.41 | 38.2 | 12.2 | 27.2 | 2.48 | 8.11 | 3.16 µM | 14.7 | 3.68 µM | 19 | 2.3 | 6.36 | 5.9 | 19.7
12 | COC(=O)[C@]12CC=C3O[C@@H]4OC5(CCCCC5)O[C@@H]4[C@H]3C1C(=O)C=CC2=O (stereo partly specified) |  | 21.6 |  | 35.2 |  | 32.1 |  | 34.5 |  | 30 |  | > 76.8 |  | 44.1 |  | 42.5 |  | 25.8 |  | 33.6
13 | NC(=O)NCCSC1CCCCC1O (stereo unspecified) |  | > 100 |  | > 100 |  | > 100 |  | > 100 |  | > 100 |  | > 100 |  | > 100 |  | > 100 |  | > 100 |  | > 100
14 | CN1CCC(n2[nH]c(-c3ccccc3)c(Cc3ccccc3)c2=O)CC1 |  | > 100 |  | > 100 |  | > 100 |  | > 100 |  | > 100 |  | > 100 |  | > 100 |  | > 100 |  | > 100 |  | > 100
15 | COC(=O)[C@@H]1CCCN1C(=O)[C@H]1CCCN1C(=O)[C@@H](Cc1c[nH]c2ccccc12)NC(=S)Nc1cc(C(F)(F)F)cc(C(F)(F)F)c1 | 2.62 | 7.93 | 1.95 | 4.29 | 3.19 | 11.2 | 2.86 | 11.7 | 3.51 | 12.1 | 2.48 | 6.3 | 2.55 µM | 6.4 | 2.44 µM | 7.53 | 2.18 | 7.08 | 3.13 | 11.4
16 | Cc1ccc(F)cc1NC(=O)c1cc(Cl)ccc1Nc1ccccc1 | 51.2 | > 100 | > 100 | > 100 | > 100 | > 100 | > 100 | > 100 | > 100 | > 100 | > 100 | > 100 | 58.8 µM | > 100 | > 100 µM | > 100 | 74.7 | > 100 | > 100 | > 100
17 | Cc1ccccc1C(C(=O)NC1CCCCC1)N(C(=O)Cn1ccnc1C)c1cccc(F)c1 (stereo unspecified) | > 100 | > 100 | 44 | > 100 | > 100 | > 100 | > 87.4 | > 100 | > 66.5 | > 100 | > 100 | > 100 | > 82.6 µM | > 100 | > 58.4 µM | > 100 | 7.5 | 40.5 | > 58 | > 100
18 | CCN1CCC(CC(=O)Nc2n[nH]c3nc(-c4cccs4)c(Br)cc23)CC1 | 9.42 | 24.8 | 5.11 | 14.1 | 11.4 | > 25 | 12.1 | > 25 | 11.5 | > 25 | 11.2 | > 25 | 11.6 µM | > 25 | 12.4 µM | > 25 | 5.51 | 16.8 | 20.1 | > 25
19 | O=[N+]([O-])c1ccc(N=Nc2c(O)[nH]c3ccccc23)cc1 |  | > 100 |  | > 96.3 |  | > 100 |  | 51.5 |  | 58.7 |  | 45.9 |  | 48.3 |  | 35.8 |  | 35.4 |  | > 100
20 | CCC(=O)c1ccc2c(c1)N(CCCN1CCN(CCO)CC1)c1ccccc1S2 | 8.82 | 27.6 | 11.1 | 26.5 | 16.1 | 31 | 17.6 | 33.8 | 15.4 | 29.5 | 11.7 | 28.7 | 16.9 µM | 32.7 | 14 µM | 31.5 | 12.2 | 26.2 | 15.9 | 31.4
21 | COc1cc(/C=C2\C(=O)Nc3ccccc32)cc(OC)c1OC | 12 | 61.5 | 16.5 | > 100 | 19.9 | > 100 | 26.1 | > 100 | 0.955 | > 100 | 3.83 | > 100 | 25 µM | > 100 | > 100 µM | > 100 | 2.37 | 10.6 | 17.9 | 68.3
22 | COc1ccc2c(c1)[C@@]1(C)CCC3c4ccc(O)cc4CCC3C1C2 (stereo partly specified) | 14.8 | 39.8 | 11 | 24.2 | 16.9 | 36.1 | 18.7 | 38.2 | 16.3 | 32.6 | 16.3 | > 100 | 17.1 µM | 38.8 | 11.7 µM | 26.8 | 10.5 | 34.5 | 16.8 | 30.8
23 | COc1cc2ncn(-c3cc(OCc4ccccc4S(C)(=O)=O)c(C#N)s3)c2cc1OC | > 25 | > 25 | > 25 | > 25 | > 25 | > 25 | > 25 | > 25 | > 22.7 | > 25 | > 25 | > 25 | > 23.1 µM | > 25 | > 25 µM | > 25 | > 14.9 | > 25 | > 25 | > 25
24 | Cc1ccc2nc(N/N=C/c3cccc(C)n3)cc(C)c2c1 |  | 42.5 |  | 31.6 |  | 40.4 |  | 48.6 |  | 38.7 |  | 45.3 |  | 49.5 |  | 38.7 |  | 31.6 |  | 43.2
25 | COc1ccc2c(c1)C(=O)c1c-2n(CCCN2CCOCC2)c(=O)c2cc([N+](=O)[O-])ccc12 | < 0.01 | 0.147 | < 0.01 | 0.0127 | < 0.01 | 9.2 | < 0.01 | 0.405 | < 0.01 | > 100 | < 0.01 |  | < 0.01 µM | > 50.6 | < 0.01 µM | > 100 | < 0.01 |  | < 0.01 | < 0.01
26 | Cc1ccc(Oc2nc3ccccc3cc2-c2nnc(Cn3c(COc4ccccc4)nc4ccccc43)o2)cc1 | 2.39 | 8.45 | 1.59 | 4.32 | 1.08 | 4.79 | 5.99 | 31.4 | 3.41 | 15.9 | 0.734 | 8.53 | 2.12 µM | 7.52 | 2.61 µM | 14.6 | 2.71 | 10.6 | 4.66 | 20.7
27 | COc1ccc(-n2c(C)nc3c(c(C)nn3-c3ccccc3)c2=O)cc1 | 0.108 | > 33.6 | 0.065 | > 100 | 0.0415 | > 100 | 0.207 | > 100 | 1.76 | > 100 | 0.0391 | > 58.7 | 0.177 µM | > 100 | 0.0403 µM | 72.5 | 0.0609 | > 100 | 0.218 | > 100
